{"source": "patent US20230250054A1", "about": "“SELECTIVE HISTONE DEACETYLASE 6 INHIBITORS” (The Board of Trustees of the University of Illinois, priority 2020, published 2023)", "key": {"HDAC6": {"biological_target": "T1, HDAC6 (Homo sapiens, UniProt Q9UBN7)", "T1 construct": "our assay that uses approximately 0.6 nM concentration of the full-length enzyme; made in house; host or cells: HEK293/T17 cells, transient transfection", "T1 sequence (Q9UBN7 1-1215)": "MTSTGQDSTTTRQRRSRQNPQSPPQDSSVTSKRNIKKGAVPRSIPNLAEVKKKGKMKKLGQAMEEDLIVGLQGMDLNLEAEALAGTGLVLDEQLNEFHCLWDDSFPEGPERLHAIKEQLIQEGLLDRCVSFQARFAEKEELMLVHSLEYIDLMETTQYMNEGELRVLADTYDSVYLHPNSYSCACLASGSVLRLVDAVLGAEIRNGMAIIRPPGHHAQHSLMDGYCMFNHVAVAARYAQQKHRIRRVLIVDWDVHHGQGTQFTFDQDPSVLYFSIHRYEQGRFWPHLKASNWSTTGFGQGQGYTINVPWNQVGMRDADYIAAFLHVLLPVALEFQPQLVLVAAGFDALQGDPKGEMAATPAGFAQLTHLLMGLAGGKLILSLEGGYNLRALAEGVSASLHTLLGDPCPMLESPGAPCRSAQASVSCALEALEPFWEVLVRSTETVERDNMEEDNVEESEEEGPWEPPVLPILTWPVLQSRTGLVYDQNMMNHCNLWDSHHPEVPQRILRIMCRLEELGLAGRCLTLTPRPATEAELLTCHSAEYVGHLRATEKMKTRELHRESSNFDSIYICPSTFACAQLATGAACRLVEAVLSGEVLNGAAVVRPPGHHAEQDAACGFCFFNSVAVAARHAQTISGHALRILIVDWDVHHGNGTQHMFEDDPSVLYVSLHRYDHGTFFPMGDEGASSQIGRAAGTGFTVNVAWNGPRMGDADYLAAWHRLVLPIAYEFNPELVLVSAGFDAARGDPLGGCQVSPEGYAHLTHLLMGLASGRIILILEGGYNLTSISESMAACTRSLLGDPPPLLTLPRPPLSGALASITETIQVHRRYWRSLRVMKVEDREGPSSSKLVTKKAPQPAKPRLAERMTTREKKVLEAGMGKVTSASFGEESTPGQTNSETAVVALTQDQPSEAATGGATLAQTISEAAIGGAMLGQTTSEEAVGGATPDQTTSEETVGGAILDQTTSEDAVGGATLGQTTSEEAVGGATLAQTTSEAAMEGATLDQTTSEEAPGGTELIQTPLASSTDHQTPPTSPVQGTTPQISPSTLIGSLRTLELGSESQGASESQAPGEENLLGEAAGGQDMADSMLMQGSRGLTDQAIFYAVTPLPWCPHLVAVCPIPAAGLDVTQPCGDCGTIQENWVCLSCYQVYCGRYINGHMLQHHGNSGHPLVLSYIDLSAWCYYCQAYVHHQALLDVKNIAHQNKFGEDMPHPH", "assay": "Fluorescence-based HDAC inhibition assay, HDAC6", "type": "biochemical", "conditions": "Table 2", "procedure": "(§1) Briefly, transiently transfected cells were harvested three days post-transfection and the cell pellets resuspended in a lysis buffer (50 mM Tris, 150 mM NaCl, 10 mM KCl, 2 mM MgCl2, 10% glycerol, 0.2% NP-40, 2 Units/mL benzonase, pH 8) supplemented with a cocktail of protease inhibitors (Roche, Basel, Switzerland). Cells were lysed by sonication (30 W; 3×20 s) on ice, and the cell lysate cleared by centrifugation at 40 000×g for 30 min at 4° C. […] Purified proteins were concentrated to 1 mg/mL, aliquoted, flash-frozen in liquid nitrogen, and stored at −80° C. until further use.\n(§2) Briefly, individual HDACs were preincubated with dilution series of tested inhibitors (0-100 μM) in a 384-well plate in the total volume of 40 μL for 10 min at 37° C. in a reaction buffer comprising 50 mM HEPES, 140 mM NaCl, 10 mM KCl, 1 mM TCEP, 0.1% BSA, pH 7.4. Deacetylation reaction was started by the addition of 10 μL of a 10 μM substrate into the HDAC/inhibitor mixture. Following the 30 min incubation at 37° C., the reaction was terminated by the addition of 25 μL of the trypsin solution (4 mg/mL). Fluorescence development by trypsin was carried out at 37° C. for 15 and 60 min for Ac-GAK(Ac)-AMC and Boc-Lys(TFA)-AMC substrate, respectively. […] Non-linear regression analysis was employed to calculate IC50 values using the GraphPad Prism software. […] Reactions without the enzyme or the inhibitor were used to define 0% and 100% of the HDAC activity, respectively."}, "HDAC1": {"biological_target": "T2, HDAC1 (Homo sapiens, UniProt Q13547)", "T2 construct": "made in house; host or cells: HEK293/T17 cells, transient transfection", "T2 sequence (Q13547 whole entry)": "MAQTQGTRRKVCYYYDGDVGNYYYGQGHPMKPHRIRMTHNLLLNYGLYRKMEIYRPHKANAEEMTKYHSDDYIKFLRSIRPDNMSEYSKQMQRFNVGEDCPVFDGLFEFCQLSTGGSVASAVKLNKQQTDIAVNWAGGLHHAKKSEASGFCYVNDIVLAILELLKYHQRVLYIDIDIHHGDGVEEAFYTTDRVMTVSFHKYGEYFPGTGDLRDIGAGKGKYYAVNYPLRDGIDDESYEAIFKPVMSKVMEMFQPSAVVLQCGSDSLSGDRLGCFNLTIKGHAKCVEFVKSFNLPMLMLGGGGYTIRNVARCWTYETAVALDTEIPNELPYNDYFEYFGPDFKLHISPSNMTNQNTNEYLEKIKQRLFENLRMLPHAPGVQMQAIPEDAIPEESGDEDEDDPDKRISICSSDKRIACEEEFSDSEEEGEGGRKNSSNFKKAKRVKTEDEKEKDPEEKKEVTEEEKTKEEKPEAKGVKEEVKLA", "assay": "Fluorescence-based HDAC inhibition assay, HDAC1", "type": "biochemical", "conditions": "ratio HDAC1 IC50 / HDAC6 IC50, Table 2", "procedure": "as §1, §2"}}, "data": [{"smiles": "NCc1ccc(NC(=O)N(CCCCO)Cc2ccc(C(=O)O)cc2)cc1", "note": "[Compound 6d, 4-((3-(4-(Aminomethyl)phenyl)-1-(4-hydroxybutyl)ureido)methyl)benzoic acid]", "values": [{"measurement": "IC50", "setting": "HDAC6", "result": 16.8, "unit": "µM"}]}, {"smiles": "NCc1ccc(NC(=O)N(CCCCO)Cc2ccc(C(N)=O)cc2)cc1", "note": "[Compound 6e, 4-((3-(4-(Aminomethyl)phenyl)-1-(4-hydroxybutyl)ureido)methyl)benzamide]", "values": [{"measurement": "IC50", "setting": "HDAC6", "result": "> 30", "unit": "µM"}]}, {"smiles": "NCc1ccc(NC(=O)N(CCCCO)Cc2ccc(B(O)O)cc2)cc1", "note": "[Compound 6f, (4-((3-(4-(Aminomethyl)phenyl)-1-(4-hydroxybutyl)ureido)methyl)phenyl)boronic acid]", "values": [{"measurement": "IC50", "setting": "HDAC6", "result": "> 30", "unit": "µM"}]}, {"smiles": "O=C(CCCCCCC(=O)Nc1ccccc1)NO", "note": "[Vorinostat, reference compound]", "values": [{"measurement": "HDAC1/6", "setting": "HDAC1", "result": 5}]}]}
